According to US20120220528A1, “SYSTEMS AND METHODS FOR THERAPY OF KIDNEY DISEASE AND/OR HEART FAILURE USING CHIMERIC NATRIURETIC PEPTIDES” (MEDTRONIC, INC., priority 2011, published 2012):
“Also recorded” adds a separate entry of the source. Bridges are numbered along the chain shown (N, C = ends). Where no end group is shown, it is not given here.

Columns and labels:
[1] = test system: Human renal medullary epithelial cells; experiment: In vitro cell-based assay of cGMP production; details: 9000, 3000, 300, 30, 10 and 0 nM, 15 minutes, ELISA
healthy canines [2] = experiment: Healthy canines: diuresis and natriuresis with IV infusion; assay type: in vivo, canine; details: one-hour IV infusion; CD-NP 100 ng/kg·min, BNP 30 ng/kg·min
healthy canines [3] = experiment: Healthy canines: diuresis and natriuresis after subcutaneous bolus; assay type: in vivo, canine; details: SQ bolus, BNP 25 μg/kg

ANP: human atrial natriuretic peptide (Phoenix Pharmaceuticals), control; ligand to the NPR-A receptor (SLRRSSCFGGRMDRIGAQSGLGCNSFRY; disulfide 7-23 (inferred); ends not checked; UniProt P01160 124-151, looked up)
stimulation of cGMP production [1]: significantly less

BNP: commercial preparation of Natrecor; recombinant form of the 32 amino acid human B-type natriuretic peptide, comparative natriuretic peptide
sodium excretion (healthy canines [2]): increasing trend
urine flow from baseline (healthy canines [2]): increasing trend
sodium excretion (natriuresis) following subcutaneous bolus (healthy canines [3]; CD-NP 27 μg/kg): increase
urine flow following subcutaneous bolus vs baseline (healthy canines [3]; CD-NP 27 μg/kg (equimolar)): increase; also recorded: statistically significant
